Drawing on US20110230476A1, “PI3 KINASE INHIBITORS AND USES THEREOF” (AVILA THERAPEUTICS, INC., priority 2009, published 2011), this text covers IC50 for 30 compounds.

The structures appear in SMILES notation.

This assay addresses T1, PI3Kα (p110α/p85α) (Homo sapiens, UniProt P42336).
T1 construct: purchased BPS Bioscience (San Diego, Calif.) or Millipore (Billerica, Mass.)
The experiment in a line: HTRF assay, potency against active PI3Kα. The assay is classed as biochemical. Particulars: HTRF; [ATP]=50 μM, [di-C8-PIP2]=10 μM; 30 min pre-incubation; read-out: PI3Kα Inhibition. In short, it runs like this: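 Active p110/p85α lipid kinase reactions were started with ATP and run 30-60 minutes at 25 °C, then stopped and developed with HTRF detection mix. HTRF ratio converted to % inhibition against ±enzyme controls; IC50 from log[inhibitor] vs response, variable slope.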
A general note: TR-FRET usually uses a lanthanide donor and a delayed reading to cut background.

T1 sequence (P42336 whole entry): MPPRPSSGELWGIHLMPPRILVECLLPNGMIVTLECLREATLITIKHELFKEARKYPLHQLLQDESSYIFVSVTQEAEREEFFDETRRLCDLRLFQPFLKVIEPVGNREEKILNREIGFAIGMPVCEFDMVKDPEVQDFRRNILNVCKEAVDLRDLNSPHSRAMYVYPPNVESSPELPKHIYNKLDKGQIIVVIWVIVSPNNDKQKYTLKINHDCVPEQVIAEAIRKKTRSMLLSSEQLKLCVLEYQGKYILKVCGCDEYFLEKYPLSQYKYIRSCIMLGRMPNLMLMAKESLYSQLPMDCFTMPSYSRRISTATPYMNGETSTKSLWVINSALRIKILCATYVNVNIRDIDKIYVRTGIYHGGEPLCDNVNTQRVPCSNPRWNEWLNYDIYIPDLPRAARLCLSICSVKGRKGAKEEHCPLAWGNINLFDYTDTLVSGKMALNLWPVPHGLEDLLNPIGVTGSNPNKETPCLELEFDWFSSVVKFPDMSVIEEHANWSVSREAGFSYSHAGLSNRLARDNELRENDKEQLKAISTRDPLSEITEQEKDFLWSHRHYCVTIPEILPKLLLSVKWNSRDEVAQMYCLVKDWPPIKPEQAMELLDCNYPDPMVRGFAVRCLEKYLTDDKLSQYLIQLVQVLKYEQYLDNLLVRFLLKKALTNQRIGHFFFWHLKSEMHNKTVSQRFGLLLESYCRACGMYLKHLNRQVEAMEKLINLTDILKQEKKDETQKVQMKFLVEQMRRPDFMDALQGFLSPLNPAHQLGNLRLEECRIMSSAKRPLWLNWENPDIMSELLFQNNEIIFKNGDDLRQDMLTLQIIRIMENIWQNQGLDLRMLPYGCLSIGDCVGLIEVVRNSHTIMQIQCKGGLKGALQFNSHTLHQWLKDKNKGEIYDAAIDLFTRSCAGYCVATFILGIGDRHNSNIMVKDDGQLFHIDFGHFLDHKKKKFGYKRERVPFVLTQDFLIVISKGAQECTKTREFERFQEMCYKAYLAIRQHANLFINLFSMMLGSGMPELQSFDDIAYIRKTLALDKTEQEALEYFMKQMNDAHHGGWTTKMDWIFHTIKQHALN
T1 sequence (P27986 whole entry partner): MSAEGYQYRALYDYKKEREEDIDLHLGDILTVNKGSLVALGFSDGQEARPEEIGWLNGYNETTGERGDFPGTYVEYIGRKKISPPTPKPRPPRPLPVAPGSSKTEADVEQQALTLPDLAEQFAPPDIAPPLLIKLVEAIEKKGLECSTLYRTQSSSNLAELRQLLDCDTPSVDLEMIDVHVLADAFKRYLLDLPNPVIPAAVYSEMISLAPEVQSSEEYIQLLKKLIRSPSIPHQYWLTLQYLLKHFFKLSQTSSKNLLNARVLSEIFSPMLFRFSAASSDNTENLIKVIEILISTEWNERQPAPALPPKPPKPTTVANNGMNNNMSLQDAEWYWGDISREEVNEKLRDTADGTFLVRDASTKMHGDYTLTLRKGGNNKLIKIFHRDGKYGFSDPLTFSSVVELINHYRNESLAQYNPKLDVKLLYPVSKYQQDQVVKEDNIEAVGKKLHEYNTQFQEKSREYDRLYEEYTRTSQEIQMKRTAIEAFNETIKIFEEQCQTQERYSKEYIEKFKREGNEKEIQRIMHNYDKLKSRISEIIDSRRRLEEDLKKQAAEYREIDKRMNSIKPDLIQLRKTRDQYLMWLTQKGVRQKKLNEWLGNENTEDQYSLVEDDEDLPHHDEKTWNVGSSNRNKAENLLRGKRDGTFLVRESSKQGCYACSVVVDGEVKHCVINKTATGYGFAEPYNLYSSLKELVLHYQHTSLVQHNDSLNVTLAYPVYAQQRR

Take `CC(C)=CC(=O)C(F)(F)C(F)(F)C(=O)N1CCN(Cc2cc3nc(-c4cccc5[nH]ncc45)nc(N4CCOCC4)c3s2)CC1` [II-a-157, 1-(4-((2-(1H-indazol-4-yl)-4-morpholinothieno[3,2-d]pyrimidin-6-yl)methyl)piperazin-1-yl)-2,2,3,3-tetrafluoro-6-methylhept-5-ene-1,4-dione]: the IC50 fell in the range of 100 to 1000 nM.
On to `CC(C)=CC(=O)C(=O)N1CCN(C2CCN(c3cc(-c4cnc(N)nc4)nc(N4CCOCC4)c3)CC2)CC1` [XII-35, 1-(4-(1-(2-(2-aminopyrimidin-5-yl)-6-morpholinopyridin-4-yl)piperidin-4-yl)piperazin-1-yl)-4-methylpent-3-ene-1,2-dione], for which the IC50 is 100 to 1000 nM.
The same measure for `C/C=C/C(=O)CCC(=O)NCc1ccc(OC)c(-n2c(CSc3ncnc4[nH]cnc34)nc3cccc(Cl)c3c2=O)c1` [I-6, (E)-N-(3-(2-((9H-purin-6-ylthio)methyl)-5-chloro-4-oxoquinazolin-3(4H)-yl)-4-methoxybenzyl)-4-oxohept-5-enamide]: > 1000 nM; for `C/C=C/C(=O)CCCC(=O)N1CC=C(c2cc3nc(-c4cccc5[nH]ncc45)nc(N4CCOCC4)c3s2)CC1` [II-a-60, (E)-1-(4-(2-(1H-indazol-4-yl)-4-morpholinothieno[3,2-d]pyrimidin-6-yl)-5,6-dihydropyridin-1(2H)-yl)oct-6-ene-1,5-dione]: 10 to 100 nM; for `C=CC(=O)NCc1ccc(OC)c(-n2c(CSc3ncnc4[nH]cnc34)nc3cccc(Cl)c3c2=O)c1` [I-5, N-(3-(2-((9H-purin-6-ylthio)methyl)-5-chloro-4-oxoquinazolin-3(4H)-yl)-4-methoxybenzyl)acrylamide]: > 1000 nM.
Under `CC(C)=CC(=O)C1(C(=O)N2CCC3(CC2)CN(c2cc(-c4cnc(N)nc4)nc(N4CCOCC4)c2)C3)CC1` [XII-38, 1-(1-(2-(2-(2-aminopyrimidin-5-yl)-6-morpholinopyridin-4-yl)-2,7-diazaspiro[3.5]nonane-7-carbonyl)cyclopropyl)-3-methylbut-2-en-1-one] stands 100 to 1000 nM; under `C/C=C(\C)C(=O)CCC(=O)N1CCN(Cc2cc3nc(-c4cccc5[nH]ncc45)nc(N4CCOCC4)c3s2)CC1` [II-a-149, (E)-1-(4-((2-(1H-indazol-4-yl)-4-morpholinothieno[3,2-d]pyrimidin-6-yl)methyl)piperazin-1-yl)-5-methylhept-5-ene-1,4-dione], 100 to 1000 nM; under `C/C=C/C(=O)CCCC(=O)Nc1ccc2c(c1)N(c1nc3c(s1)C(=O)NC(C)(C)C3)CCO2` [VI-24, (E)-N-(4-(6,6-dimethyl-4-oxo-4,5,6,7-tetrahydrothiazolo[5,4-c]pyridin-2-yl)-3,4-dihydro-2H-benzo[b][1,4]oxazin-6-yl)-5-oxooct-6-enamide], > 1000 nM.
For `C=CC(=O)Nc1ccc(CCNC(=O)c2cc3nc(-c4cccc5[nH]ncc45)nc(N4CC5(COC5)C4)c3s2)cc1` [II-a-151, N-(4-acrylamidophenethyl)-2-(1H-indazol-4-yl)-4-(2-oxa-6-azaspiro[3.3]heptan-6-yl)thieno[3,2-d]pyrimidine-6-carboxamide], the IC50 was > 1000 nM.
The same measure for `C=CC(=O)N1CCN(c2ccc(-c3ccnc4ccc(/C=C5\SC(=O)NC5=O)cc34)cc2)CC1` [V-11, (Z)-5-((4-(4-(4-acryloylpiperazin-1-yl)phenyl)quinolin-6-yl)methylene)thiazolidine-2,4-dione]: 10 to 100 nM; for `COc1c(OCCNC(=O)CCC(=O)/C=C/c2ccccc2)ccc2c1N=C(NC(=O)c1cccnc1)N1CCN=C21` [IX-3, (E)-N-(7-methoxy-8-(2-(4-oxo-6-phenylhex-5-enamido)ethoxy)-2,3-dihydroimidazo[1,2-c]quinazolin-5-yl)nicotinamide]: 10 to 100 nM.
Under `C=C(C)C(=O)CCC(=O)N1CCC(O)(C#Cc2cc3nc(-c4cccc(O)c4)nc(N4CCOCC4)c3s2)CC1` [II-a-105, 1-(4-hydroxy-4-((2-(3-hydroxyphenyl)-4-morpholinothieno[3,2-d]pyrimidin-6-yl)ethynyl)piperidin-1-yl)-5-methylhex-5-ene-1,4-dione] stands < 10 nM; under `C=CC(=O)N1CCc2ccc(-c3ccnc4ccc(/C=C5\SC(=O)NC5=O)cc34)cc2C1` [V-19, (Z)-5-((4-(2-acryloyl-1,2,3,4-tetrahydroisoquinolin-7-yl)quinolin-6-yl)methylene)thiazolidine-2,4-dione], 10 to 100 nM.
The same measure for `C=CC(=O)NCCOCCOc1ccc2c(c1OC)N=C(NC(=O)c1cccnc1)N1CCN=C21` [IX-1, N-(8-(2-(2-acrylamidoethoxy)ethoxy)-7-methoxy-2,3-dihydroimidazo[1,2-c]quinazolin-5-yl)nicotinamide]: 10 to 100 nM; for `C=CC(=O)NCc1ccc(-c2cc3nc(-c4cccc5[nH]ncc45)nc(N4CCOCC4)c3s2)cc1` [II-a-107, N-(4-(2-(1H-indazol-4-yl)-4-morpholinothieno[3,2-d]pyrimidin-6-yl)benzyl)acrylamide]: 100 to 1000 nM.
Regarding `C/C=C/C(=O)CCC(=O)NCCCC(=O)N1CCN(Cc2cc3nc(-c4cccc5[nH]ncc45)nc(N4CCOCC4)c3s2)CC1` [II-a-19, (E)-N-(4-(4-((2-(1H-indazol-4-yl)-4-morpholinothieno[3,2-d]pyrimidin-6-yl)methyl)piperazin-1-yl)-4-oxobutyl)-4-oxohept-5-enamide], the IC50 is 10 to 100 nM.
Under `C/C=C/C(=O)CCC(=O)NC1CCN(c2ccc(-c3cc4nc(-c5cccc(O)c5)nc(N5CCOCC5)c4s3)cc2)CC1` [II-a-109, (E)-N-(1-(4-(2-(3-hydroxyphenyl)-4-morpholinothieno[3,2-d]pyrimidin-6-yl)phenyl)piperidin-4-yl)-4-oxohept-5-enamide] stands < 10 nM.
Under `C=CC(=O)Nc1ccc(CN2CCC(n3ncc4c(N5CCOCC5)nc(-c5ccc(NC(=O)NC)cc5)nc43)CC2)cc1` [VII-5, N-(4-((4-(6-(4-(3-methylureido)phenyl)-4-morpholino-1H-pyrazolo[3,4-d]pyrimidin-1-yl)piperidin-1-yl)methyl)phenyl)acrylamide] stands 100 to 1000 nM.
`C/C=C/C(=O)CCCC(=O)NCC(=O)N1CC=C(c2cc3nc(-c4cccc5[nH]ncc45)nc(N4CCOCC4)c3s2)CC1` [II-a-61, (E)-N-(2-(4-(2-(1H-indazol-4-yl)-4-morpholinothieno[3,2-d]pyrimidin-6-yl)-5,6-dihydropyridin-1(2H)-yl)-2-oxoethyl)-5-oxooct-6-enamide]: the IC50 is < 10 nM.
Under `C/C=C/C(=O)CCC(=O)N1CCN(c2ccc(-c3ccnc4ccc(/C=C5\SC(=O)NC5=O)cc34)cc2)CC1` [V-15, (Z)-5-((4-(4-(4-((E)-4-oxohept-5-enoyl)piperazin-1-yl)phenyl)quinolin-6-yl)methylene)thiazolidine-2,4-dione] stands 10 to 100 nM; under `CC(C)=CC(=O)c1ccc(CCNC(=O)c2cc(-c3cnc(N)nc3)nc(N3CCOCC3)c2)cc1` [XII-10, 2-(2-aminopyrimidin-5-yl)-N-(4-(3-methylbut-2-enoyl)phenethyl)-6-morpholinoisonicotinamide], 100 to 1000 nM.
Under `C/C(=C\c1ccccc1)C(=O)CCC(=O)N1CCN(Cc2cc3nc(-c4cccc5[nH]ncc45)nc(N4CCOCC4)c3s2)CC1` [II-a-168, (E)-1-(4-((2-(1H-indazol-4-yl)-4-morpholinothieno[3,2-d]pyrimidin-6-yl)methyl)piperazin-1-yl)-5-methyl-6-phenylhex-5-ene-1,4-dione] stands 100 to 1000 nM; under `CC(C)=CC(=O)CN1CCN(C2CCN(c3cc(-c4cnc(N)nc4)nc(N4CCOCC4)c3)CC2)CC1` [XII-34, 1-(4-(1-(2-(2-aminopyrimidin-5-yl)-6-morpholinopyridin-4-yl)piperidin-4-yl)piperazin-1-yl)-4-methylpent-3-en-2-one], 100 to 1000 nM.
As to `C=CC(=O)N1CCc2cc(-c3cc4nc(-c5cccc(O)c5)nc(N5CCOCC5)c4s3)ccc2C1` [II-a-66, 1-(6-(2-(3-hydroxyphenyl)-4-morpholinothieno[3,2-d]pyrimidin-6-yl)-3,4-dihydroisoquinolin-2(1H)-yl)prop-2-en-1-one], the IC50 was in the range of 10 to 100 nM.
The same measure for `CC(C)=CC(=O)CCCC(=O)N1CC2(CCN(c3cc(-c4cnc(N)nc4)nc(N4CCOCC4)c3)CC2)C1` [XII-44, 1-(7-(2-(2-aminopyrimidin-5-yl)-6-morpholinopyridin-4-yl)-2,7-diazaspiro[3.5]nonan-2-yl)-7-methyloct-6-ene-1,5-dione]: > 1000 nM; for `CC(C)=CC(=O)c1ccc(CCNC(=O)c2cc(-c3cnc(N)cc3C(F)(F)F)nc(N3CCOCC3)c2)cc1` [XII-9, 6′-amino-N-(4-(3-methylbut-2-enoyl)phenethyl)-6-morpholino-4′-(trifluoromethyl)-2,3′-bipyridine-4-carboxamide]: > 1000 nM.
Under `C=CC(=O)Nc1ccc(CCNC(=O)c2cc(-c3cnc(N)nc3C)nc(N3CCOCC3)c2)cc1` [XII-16, N-(4-acrylamidophenethyl)-2-(2-amino-4-methylpyrimidin-5-yl)-6-morpholinoisonicotinamide] stands 100 to 1000 nM; under `C=CC(=O)NC1CCN(c2ccc(-c3cc4nc(-c5cccc(O)c5)nc(N5CCOCC5)c4s3)cc2)CC1` [II-a-81, N-(1-(4-(2-(3-hydroxyphenyl)-4-morpholinothieno[3,2-d]pyrimidin-6-yl)phenyl)piperidin-4-yl)acrylamide], 10 to 100 nM; under `O=C(CCl)N1CCN(Cc2cc3nc(-c4cccc5[nH]ncc45)nc(N4CCOCC4)c3s2)CC1` [II-a-145, 1-(4-((2-(1H-indazol-4-yl)-4-morpholinothieno[3,2-d]pyrimidin-6-yl)methyl)piperazin-1-yl)-2-chloroethanone], 100 to 1000 nM.
Under `C/C=C/C(=O)CCC(=O)N1CCc2cc(-c3cc4nc(-c5cccc(O)c5)nc(N5CCOCC5)c4s3)ccc2C1` [II-a-108, (E)-1-(6-(2-(3-hydroxyphenyl)-4-morpholinothieno[3,2-d]pyrimidin-6-yl)-3,4-dihydroisoquinolin-2(1H)-yl)hept-5-ene-1,4-dione] stands < 10 nM.
